# Test results: patent EP4592286A1, “MACROCYCLIC NITROGEN-CONTAINING CROWN ETHER COMPOUND AND USE THEREOF AS PROTEIN KINASE INHIBITOR” (Artivila Biopharma, priority 2022, dated 2024)
# Tests used:
# Type in all cases: biochemical
# LRRK2 [1] = target: T1, LRRK2 (Homo sapiens, UniProt Q5S007); test: experiment of inhibiting LRRK2 kinase activity (ADP-Glo method); conditions: Table 4
# Protocol: The inhibitory effect of the compounds on the activity of LRRK2 kinase was detected by ADP-Glo method. The diluted solutions of the compounds were transfered to a 384-well plate (784075, Greiner), the plate was sealed and centrifuged at a speed of 1000 g for 1 minute. A kinase solution at 2-fold final concentration was prepared with 1×kinase buffer, 2.5 µl of the kinase solution with 2-fold final concentration was added to the wells, the plate was centrifuged at 1000 g for 30 seconds, and left at room temperature for 10 minutes. A mixed solution of ATP and kinase substrate at 2-fold final concentration was prepared with 1×kinase buffer, and 2.5 µL of mixed solution of ATP and substrate at 2-fold final concentration was added to start the reaction. The plate was centrifuged at 1000 g for 30 seconds, sealed and left at room temperature for 2 hours. 4 µL of ADP-Glo reagent was added and incubated at room temperature for 40 minutes; 8 µL kinase detection reagent was added and incubated at room temperature for another 40 minutes. The luminescence signal value was detected on Envision 2104 microplate reader. The conversion inhibition rate%=100-(compound signal value-positive control signal value)/(blank control signal value-positive control signal value)×100.
# The IC50 was calculated with GraphPad 6.0 and the dose-responsive curve of the compounds was plotted as follows: y=Bottom+(Top-Bottom)/(1+10^((logic50-x)×hillslope)), where x was logarithm of inhibitor concentration; and y was % inhibition rate.
# JAK2 = JAK2 (Homo sapiens, UniProt O60674); test: experiment of inhibiting kinase activity (Caliper mobility shift assay), JAK2; conditions: read-out: inhibition rate JAK2; for inhibition at 0.01 µM: at 10 nM; for inhibition at 0.1 µM: at 100 nM
# Procedure, shortened: (§1)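 Kinase preincubated 10 min at room temperature with compound, then reaction started with ATP plus substrate; substrate conversion read by Caliper mobility shift after stop solution. Compounds tested at 10 and 100 nM or as 10-point 3-fold dilutions from 10 µM; IC50 from variable-slope fit of % inhibition.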
# CDK7 = CDK7 (Homo sapiens, UniProt P50613); test: experiment of inhibiting kinase activity (Caliper mobility shift assay), CDK7; conditions: read-out: inhibition rate CDK7; for inhibition at 0.1 µM: at 100 nM; for inhibition at 0.01 µM: at 10 nM
# Procedure, shortened: as §1
# JAK1 = JAK1 (Homo sapiens, UniProt P23458); test: experiment of inhibiting kinase activity (Caliper mobility shift assay), JAK1; conditions: read-out: inhibition rate JAK1; for inhibition at 0.1 µM: at 100 nM
# Procedure, shortened: as §1
# JAK3 = target: T2, JAK3 (Homo sapiens, UniProt P52333); test: experiment of inhibiting kinase activity (Caliper mobility shift assay), JAK3; conditions: read-out: inhibition rate JAK3; for inhibition at 0.01 µM: at 10 nM; for inhibition at 0.1 µM: at 100 nM
# T2 sequence (P52333 1-1124): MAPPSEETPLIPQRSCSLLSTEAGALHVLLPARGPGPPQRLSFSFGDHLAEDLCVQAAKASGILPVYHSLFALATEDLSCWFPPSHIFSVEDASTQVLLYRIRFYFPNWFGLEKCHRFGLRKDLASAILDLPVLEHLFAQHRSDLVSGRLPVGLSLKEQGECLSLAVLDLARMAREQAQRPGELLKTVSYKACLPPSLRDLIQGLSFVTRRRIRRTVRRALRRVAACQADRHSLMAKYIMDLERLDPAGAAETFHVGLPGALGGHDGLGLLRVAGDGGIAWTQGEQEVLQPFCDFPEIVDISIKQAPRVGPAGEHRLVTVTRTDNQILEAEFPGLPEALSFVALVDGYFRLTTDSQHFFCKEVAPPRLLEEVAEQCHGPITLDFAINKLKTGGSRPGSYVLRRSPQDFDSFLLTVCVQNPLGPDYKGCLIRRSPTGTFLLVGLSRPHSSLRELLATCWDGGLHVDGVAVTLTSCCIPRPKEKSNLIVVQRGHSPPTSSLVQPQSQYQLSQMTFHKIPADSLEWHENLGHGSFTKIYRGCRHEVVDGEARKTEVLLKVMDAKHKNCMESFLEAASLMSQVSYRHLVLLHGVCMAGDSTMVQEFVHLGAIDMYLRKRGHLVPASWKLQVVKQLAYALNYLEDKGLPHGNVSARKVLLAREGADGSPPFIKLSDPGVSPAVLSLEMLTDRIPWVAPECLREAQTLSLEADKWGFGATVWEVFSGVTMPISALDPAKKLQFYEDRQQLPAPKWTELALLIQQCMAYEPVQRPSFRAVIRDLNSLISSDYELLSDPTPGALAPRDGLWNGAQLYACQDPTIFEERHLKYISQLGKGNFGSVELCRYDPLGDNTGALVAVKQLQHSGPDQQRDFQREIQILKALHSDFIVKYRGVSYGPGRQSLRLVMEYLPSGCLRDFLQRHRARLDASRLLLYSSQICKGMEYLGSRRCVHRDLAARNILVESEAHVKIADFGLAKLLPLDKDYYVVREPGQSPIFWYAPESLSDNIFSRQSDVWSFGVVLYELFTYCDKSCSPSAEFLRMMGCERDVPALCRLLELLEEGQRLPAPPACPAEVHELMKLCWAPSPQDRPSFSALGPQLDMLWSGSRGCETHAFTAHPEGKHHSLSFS
# Procedure, shortened: as §1
# TYK2 = TYK2 (Homo sapiens, UniProt P29597); test: experiment of inhibiting kinase activity, TYK2; conditions: read-out: inhibition rate TYK2; for inhibition at 0.1 µM: at 100 nM; for inhibition at 0.01 µM: at 10 nM
# Protocol: (§2) The inhibition rates of tested compounds on JAK1, JAK2, JAK3, TYK2, CDK7, CDK9, EGFR (T790M) and LRRK2 kinases were measured. The test concentrations of the compounds were 10 nM and 100 nM, and the detection was performed by replicate wells. Alternatively, compounds were 3-fold serial diluted from 10 µM for 10 concentrations in replicate wells.
# LRRK2 [2] = target: T1, LRRK2; test: experiment of inhibiting kinase activity, LRRK2; conditions: for inhibition at 0.1 µM: at 100 nM; for inhibition at 0.1 µM / inhibition at 0.01 µM: read-out: inhibition rate LRRK2; for inhibition at 0.01 µM: at 10 nM; for IC50: kinase activity assay, Table 3
# Protocol: as §2
# CDK9 = CDK9 (Homo sapiens, UniProt P50750); test: experiment of inhibiting kinase activity (Caliper mobility shift assay), CDK9; conditions: at 100 nM; read-out: inhibition rate CDK9
# Protocol: as §2
# The inhibitory effects of the compounds on JAK1, JAK2, JAK3, CDK7 and CDK9 kinases were detected by the method of Caliper mobility shift assay. 250 nL of the compound at 100-fold final concentration was transferred to a destination plate 384-well-plate by using a liquid handler Echo 550. A kinase solution at 2.5-fold final concentration was prepared with 1×kinase buffer. 10 µL of the kinase solution with 2.5-fold final concentration was added to compound wells and positive control wells; and 10 µL of 1×kinase buffer was added to negative control wells. The mixture was centrifuged at 1000 rpm for 30 seconds and then incubated at room temperature for 10 minutes. A mixed solution of ATP and kinase substrate at 5/3-fold final concentration was prepared with 1×kinase buffer, and 15 µL of the mixed solution of ATP and substrate at 5/3-fold final concentration was added to start the reaction. The 384-well plate was centrifuged at 1000 rpm for 30 seconds, shaked and mixed evenly, then incubated at room temperature for a corresponding time. 30 µL of stop solution was added to stop the kinase reaction, the mixture was centrifuged at 1000 rpm for 30 seconds, and shaked and mixed evenly. The conversion rate was read by Caliper EZ Reader. The conversion inhibition rate%=(average positive control conversion rate%-sample conversion rate%)/(average positive control conversion rate%-average negative control conversion rate%). Where negative control wells represent the conversion readings of the background well of kinase buffer; and positive control wells represent the conversion readings of wells without compound inhibition. With the log value of concentration as the x axis and the percentage inhibition rate as the y axis, the dose-response curve was fitted by the log (inhibitor) vs. response-variable slope of the analyzing softwar GraphPad Prism 5, and the IC50 values of each compound on enzyme activity were obtained. Calculation formula is as follows: y=Bottom+(Top-Bottom)/(1+10^((LogIC50-x)×hillslope)), where x is logarithm of inhibitor concentration; and Y is % inhibition rate.
# Sequence of JAK2 (O60674 whole entry): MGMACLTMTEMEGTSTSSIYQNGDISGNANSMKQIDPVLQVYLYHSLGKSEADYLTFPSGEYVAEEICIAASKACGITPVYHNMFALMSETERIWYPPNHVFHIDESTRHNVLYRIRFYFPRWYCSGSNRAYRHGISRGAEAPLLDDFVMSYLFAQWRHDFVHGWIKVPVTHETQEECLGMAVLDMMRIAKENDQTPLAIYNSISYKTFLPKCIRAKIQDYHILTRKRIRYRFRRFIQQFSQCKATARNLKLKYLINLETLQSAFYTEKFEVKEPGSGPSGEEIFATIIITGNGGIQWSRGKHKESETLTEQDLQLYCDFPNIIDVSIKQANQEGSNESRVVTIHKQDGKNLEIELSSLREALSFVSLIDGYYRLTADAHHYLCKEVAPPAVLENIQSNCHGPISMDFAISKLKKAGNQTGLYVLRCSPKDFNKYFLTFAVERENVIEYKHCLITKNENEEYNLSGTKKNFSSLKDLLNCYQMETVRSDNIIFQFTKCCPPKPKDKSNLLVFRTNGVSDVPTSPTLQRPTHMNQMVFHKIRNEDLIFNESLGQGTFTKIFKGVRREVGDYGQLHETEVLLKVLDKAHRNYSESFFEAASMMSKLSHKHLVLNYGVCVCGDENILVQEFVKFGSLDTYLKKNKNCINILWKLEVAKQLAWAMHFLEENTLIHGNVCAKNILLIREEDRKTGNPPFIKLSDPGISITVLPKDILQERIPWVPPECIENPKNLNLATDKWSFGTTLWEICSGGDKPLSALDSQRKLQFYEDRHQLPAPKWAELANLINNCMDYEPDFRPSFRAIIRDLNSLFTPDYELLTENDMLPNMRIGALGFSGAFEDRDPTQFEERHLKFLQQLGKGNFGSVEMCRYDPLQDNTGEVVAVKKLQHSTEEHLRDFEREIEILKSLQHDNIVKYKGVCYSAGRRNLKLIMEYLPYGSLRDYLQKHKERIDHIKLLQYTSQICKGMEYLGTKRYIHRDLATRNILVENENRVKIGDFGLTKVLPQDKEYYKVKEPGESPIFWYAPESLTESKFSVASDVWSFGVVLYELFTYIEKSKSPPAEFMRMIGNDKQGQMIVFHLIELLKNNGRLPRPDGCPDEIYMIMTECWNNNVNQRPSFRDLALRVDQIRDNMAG
# Sequence of CDK7 (P50613 whole entry, species assumed): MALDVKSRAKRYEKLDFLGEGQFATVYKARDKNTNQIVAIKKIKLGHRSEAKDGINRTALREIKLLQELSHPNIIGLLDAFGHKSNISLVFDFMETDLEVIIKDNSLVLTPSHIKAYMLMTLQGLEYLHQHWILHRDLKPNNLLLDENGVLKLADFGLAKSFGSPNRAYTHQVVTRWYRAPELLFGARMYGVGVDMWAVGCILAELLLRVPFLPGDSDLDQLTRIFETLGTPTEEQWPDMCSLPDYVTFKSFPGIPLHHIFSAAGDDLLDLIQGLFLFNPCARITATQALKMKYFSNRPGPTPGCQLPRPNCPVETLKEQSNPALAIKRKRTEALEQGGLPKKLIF
# Sequence of CDK7 (P51946 whole entry partner, species assumed): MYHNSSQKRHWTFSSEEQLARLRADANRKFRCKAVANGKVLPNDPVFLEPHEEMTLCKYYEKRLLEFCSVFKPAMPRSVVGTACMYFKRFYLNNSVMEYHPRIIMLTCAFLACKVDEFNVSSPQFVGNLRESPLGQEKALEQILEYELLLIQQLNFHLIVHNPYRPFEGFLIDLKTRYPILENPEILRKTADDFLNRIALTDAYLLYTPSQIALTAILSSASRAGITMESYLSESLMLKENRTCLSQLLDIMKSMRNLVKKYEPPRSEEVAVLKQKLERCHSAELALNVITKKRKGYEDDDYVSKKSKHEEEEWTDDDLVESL
# Sequence of CDK7 (P51948 whole entry partner, species assumed): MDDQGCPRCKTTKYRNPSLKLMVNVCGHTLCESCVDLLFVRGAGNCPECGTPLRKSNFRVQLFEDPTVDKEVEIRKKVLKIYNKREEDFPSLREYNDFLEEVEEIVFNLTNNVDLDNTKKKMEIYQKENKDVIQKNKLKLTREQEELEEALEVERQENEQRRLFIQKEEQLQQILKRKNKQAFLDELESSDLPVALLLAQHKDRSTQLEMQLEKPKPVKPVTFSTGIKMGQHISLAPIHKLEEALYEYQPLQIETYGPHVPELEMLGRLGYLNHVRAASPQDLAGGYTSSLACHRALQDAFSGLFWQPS
# T1 sequence (Q5S007 whole entry): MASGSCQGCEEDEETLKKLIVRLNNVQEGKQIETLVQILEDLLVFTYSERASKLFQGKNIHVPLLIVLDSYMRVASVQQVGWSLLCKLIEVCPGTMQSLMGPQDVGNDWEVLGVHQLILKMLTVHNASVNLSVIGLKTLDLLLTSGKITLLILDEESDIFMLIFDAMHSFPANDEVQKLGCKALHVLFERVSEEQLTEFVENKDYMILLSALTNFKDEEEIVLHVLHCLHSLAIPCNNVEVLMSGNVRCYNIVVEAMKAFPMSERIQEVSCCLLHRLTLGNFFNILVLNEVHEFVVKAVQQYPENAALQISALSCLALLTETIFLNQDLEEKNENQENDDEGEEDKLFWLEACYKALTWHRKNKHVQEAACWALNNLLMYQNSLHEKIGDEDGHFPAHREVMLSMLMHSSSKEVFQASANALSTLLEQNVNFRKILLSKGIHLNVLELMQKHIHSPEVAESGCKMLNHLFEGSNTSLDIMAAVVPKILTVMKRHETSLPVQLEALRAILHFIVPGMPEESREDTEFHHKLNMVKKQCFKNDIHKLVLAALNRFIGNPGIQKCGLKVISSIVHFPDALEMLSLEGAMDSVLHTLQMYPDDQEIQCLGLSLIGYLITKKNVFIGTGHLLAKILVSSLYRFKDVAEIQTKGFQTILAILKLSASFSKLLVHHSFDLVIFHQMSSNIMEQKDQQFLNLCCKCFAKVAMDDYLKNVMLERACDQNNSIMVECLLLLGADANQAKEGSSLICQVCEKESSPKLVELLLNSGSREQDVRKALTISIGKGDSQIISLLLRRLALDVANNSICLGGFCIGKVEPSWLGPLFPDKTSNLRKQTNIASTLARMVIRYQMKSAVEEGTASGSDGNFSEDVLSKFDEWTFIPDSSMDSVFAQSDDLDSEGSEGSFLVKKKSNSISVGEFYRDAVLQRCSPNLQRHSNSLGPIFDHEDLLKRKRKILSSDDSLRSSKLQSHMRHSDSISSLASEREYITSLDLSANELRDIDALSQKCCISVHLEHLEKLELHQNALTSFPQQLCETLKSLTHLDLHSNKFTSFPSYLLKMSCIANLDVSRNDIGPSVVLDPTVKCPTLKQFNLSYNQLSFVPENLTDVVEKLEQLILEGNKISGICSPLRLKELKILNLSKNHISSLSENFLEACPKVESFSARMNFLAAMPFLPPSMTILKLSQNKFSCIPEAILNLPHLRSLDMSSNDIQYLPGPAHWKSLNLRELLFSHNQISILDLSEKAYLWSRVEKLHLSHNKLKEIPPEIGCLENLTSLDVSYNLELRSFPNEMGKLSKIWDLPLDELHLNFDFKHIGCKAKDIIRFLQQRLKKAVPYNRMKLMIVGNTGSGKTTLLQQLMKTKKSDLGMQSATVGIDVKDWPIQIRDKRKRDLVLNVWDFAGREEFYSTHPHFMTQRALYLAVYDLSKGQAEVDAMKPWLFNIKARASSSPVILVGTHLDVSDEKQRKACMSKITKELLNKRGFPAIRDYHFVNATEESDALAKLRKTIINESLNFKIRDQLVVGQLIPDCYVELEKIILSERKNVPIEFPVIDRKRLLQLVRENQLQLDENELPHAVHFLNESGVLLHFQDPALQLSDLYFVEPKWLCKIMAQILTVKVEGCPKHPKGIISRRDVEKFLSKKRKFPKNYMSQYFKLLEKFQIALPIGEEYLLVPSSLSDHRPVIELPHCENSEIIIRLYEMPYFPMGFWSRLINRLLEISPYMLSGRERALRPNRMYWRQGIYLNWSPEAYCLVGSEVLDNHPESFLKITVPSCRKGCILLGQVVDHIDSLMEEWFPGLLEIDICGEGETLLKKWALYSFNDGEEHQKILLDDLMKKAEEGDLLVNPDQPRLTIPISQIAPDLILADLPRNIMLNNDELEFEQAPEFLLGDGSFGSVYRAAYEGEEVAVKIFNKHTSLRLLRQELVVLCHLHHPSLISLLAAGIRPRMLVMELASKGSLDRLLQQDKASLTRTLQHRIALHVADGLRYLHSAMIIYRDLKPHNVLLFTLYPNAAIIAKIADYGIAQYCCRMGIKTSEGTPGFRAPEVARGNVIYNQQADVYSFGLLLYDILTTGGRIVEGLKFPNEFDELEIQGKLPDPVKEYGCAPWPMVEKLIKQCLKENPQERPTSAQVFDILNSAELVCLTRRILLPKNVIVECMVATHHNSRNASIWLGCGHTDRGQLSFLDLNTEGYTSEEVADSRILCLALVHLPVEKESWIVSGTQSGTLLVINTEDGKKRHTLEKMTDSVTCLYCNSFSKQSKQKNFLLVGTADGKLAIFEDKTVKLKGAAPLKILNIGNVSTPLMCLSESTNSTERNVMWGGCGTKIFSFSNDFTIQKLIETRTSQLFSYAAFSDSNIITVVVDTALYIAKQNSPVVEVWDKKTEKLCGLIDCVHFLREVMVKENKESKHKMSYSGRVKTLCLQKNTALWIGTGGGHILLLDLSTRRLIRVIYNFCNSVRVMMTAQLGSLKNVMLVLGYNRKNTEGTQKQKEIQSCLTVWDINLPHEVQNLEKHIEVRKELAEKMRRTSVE
Compound,IC50 (LRRK2 [1]),inhibition at 0.01 µM (JAK2),inhibition at 0.1 µM (JAK2),inhibition at 0.1 µM (CDK7),inhibition at 0.1 µM (JAK1),inhibition at 0.01 µM (JAK3),inhibition at 0.1 µM (JAK3),inhibition at 0.1 µM (TYK2),inhibition at 0.1 µM (LRRK2 [2]),inhibition at 0.1 µM (CDK9),inhibition at 0.01 µM (TYK2),inhibition at 0.01 µM (LRRK2 [2]),IC50 (LRRK2 [2]),inhibition at 0.01 µM (CDK7),inhibition at 0.01 µM (JAK1; at 10 nM)
"CN1CCOCCOc2ccc(Nc3nc(O[C@H]4CC[C@](C)(O)CC4)c4cc[nH]c4n3)cc2OCC1 [Example 87, (1r,4r)-1-methyl-4-((2-((7-methyl-2,3,6,7,8,9-hexahydro-5H-benzo[b][1,4,7]trioxa [10]azacyclododecan-12-yl)amino)-7H-pyrrolo[2,3-d]pyrimidin-4-yl)oxy)cyclohexan-1-ol]",< 100 nM,–,–,–,–,–,–,–,–,–,–,–,–,–,–
"CN1CCOCCOc2cc(Nc3ncc(F)c(Nc4ccc5[nH]ccc5c4)n3)ccc2OCC1 [Example 30, 5-fluoro-N^4-(1H-indol-5-yl)-N^2-(7-methyl-2,3,6,7,8,9-hexahydro-5H-benzo[b][1,4,7]trioxa[10]azacyclododecan-13-yl)pyrimidin-2,4-diamine]",–,40 to 79%,> 80%,40 to 79%,25 to 39%,25 to 39%,> 80%,40 to 79%,25 to 39%,40 to 79%,–,–,–,–,–
"CN1CCOCCOc2cc(Nc3nc(Nc4ccccc4P(C)(C)=O)c4cc[nH]c4n3)ccc2OCC1 [Example 32, dimethyl(2-((2-((7-methyl-2,3,6,7,8,9-hexahydro-5H-benzo[b][1,4,7]trioxa[10]azacyclododecan-13-yl)amino)-7H-pyrrolo[2,3-d]pyrimidin-4-yl)amino)phenyl)phosphine oxide]",–,40 to 79%,> 80%,40 to 79%,–,> 80%,> 80%,40 to 79%,> 80%,25 to 39%,25 to 39%,> 80%,< 50 nM,–,–
"CC(C)S(=O)(=O)c1ccccc1Nc1nc(Nc2ccc3c(c2)OCCOCCN(C)CCO3)nc2[nH]ccc12 [Example 10, N^4-(2-(isopropylsulfonyl)phenyl)-N^2-(7-methyl-2,3,6,7,8,9-hexahydro-5H-benzo[b][1,4, 7]trioxa[10]azacyclododecan-13-yl)-7H-pyrrolo[2,3-d]pyrimidin-2,4-diamine]",–,> 80%,> 80%,> 80%,25 to 39%,40 to 79%,> 80%,> 80%,> 80%,40 to 79%,–,> 80%,< 50 nM,40 to 79%,–

# Second part, the compound after the results:
IC50 (LRRK2 [1]),inhibition at 0.01 µM (JAK2),inhibition at 0.1 µM (JAK2),inhibition at 0.1 µM (CDK7),inhibition at 0.1 µM (JAK1),inhibition at 0.01 µM (JAK3),inhibition at 0.1 µM (JAK3),inhibition at 0.1 µM (TYK2),inhibition at 0.1 µM (LRRK2 [2]),inhibition at 0.1 µM (CDK9),inhibition at 0.01 µM (TYK2),inhibition at 0.01 µM (LRRK2 [2]),IC50 (LRRK2 [2]),inhibition at 0.01 µM (CDK7),inhibition at 0.01 µM (JAK1; at 10 nM),Compound
< 100 nM,–,–,–,–,–,–,–,–,–,–,–,–,–,–,"COc1ccccc1Nc1nc(Nc2ccc3c(c2)OCCN(C)CCO3)ncc1C(F)(F)F [Example 95, N^4-(2-methoxyphenyl)-N^2-(4-methyl-3,4,5,6-tetrahydro-2H-benzo[b][1,4,7]dioxazolin-9-yl)-5-(trifluoromethyl)pyrimidin-2,4-diamine]"
< 100 nM,–,–,–,–,–,–,–,–,–,–,–,–,–,–,"COCc1ccccc1Nc1nc(Nc2ccc3c(c2)OCCN(C)CCOCCO3)ncc1C(F)(F)F [Example 116, N^4-(2-(methoxymethyl)phenyl)-N^2-(7-methyl-2,3,6,7,8,9-hexahydro-5H-benzo[b][1,4,7]trioxa[10]azacyclododecan-12-yl)-5-(trifluoromethyl)pyrimidin-2,4-diamine]"
< 100 nM,–,–,–,–,–,–,–,–,–,–,–,–,–,–,"Cc1cnc(Nc2ccc3c(c2)OCCN(C)CCOCCO3)nc1O[C@H]1CC[C@@](C)(O)CC1 [Example 105, (1s,4s)-1-methyl-4-((5-methyl-2-((7-methyl-2,3,6,7,8,9-hexahydro-5H-benzo[b][1,4, 7]trioxa[10]azacyclododecan-12-yl)amino)pyrimidin-4-yl)oxy)cyclohexan-1-ol]"
100 to 500 nM,–,–,–,–,–,–,–,–,–,–,–,–,–,–,"CN1CCOCCOc2ccc(Nc3nc(O[C@H]4CC[C@@](C)(O)CC4)c4ccccc4n3)cc2OCC1 [Example 109, (1s,4s)-1-methyl-4-((2-((7-methyl-2,3,6,7,8,9-hexahydro-5H-benzo[b][1,4,7]trioxa[1 0]azacyclododecan-12-yl)amino)quinazolin-4-yl)oxy)cyclohexan-1-ol]"
–,40 to 79%,> 80%,> 80%,40 to 79%,40 to 79%,> 80%,> 80%,> 80%,25 to 39%,25 to 39%,–,–,40 to 79%,25 to 39%,"CC(C)S(=O)(=O)c1ccccc1Nc1nc(Nc2ccc3c(c2)OCCOCCN(S(C)(=O)=O)CCO3)nc2[nH]ccc12 [Example 99, N^4-(2-(isopropylsulfonyl)phenyl)-N^2-(7-(methylsulfonyl)-2,3,6,7,8,9-hexahydro-5H-benzo[b][1,4,7]trioxa[10]azacyclododecan-13-yl)-7H-pyrrolo[2,3-d]pyrimidin-2,4-diamine]"
